Residue numbers refer to the chain shown, from its start. Several values for one entry are separate records, joined by “and”; a condition that tells them apart may be missing. Identical values can stand only once.
Columns and labels:
GPR126 [1] = biological target: T1, GPR126 (Homo sapiens, UniProt Q86SQ4); experiment: cell-based; format: cell-based
T1 sequence (Q86SQ4 38-1221): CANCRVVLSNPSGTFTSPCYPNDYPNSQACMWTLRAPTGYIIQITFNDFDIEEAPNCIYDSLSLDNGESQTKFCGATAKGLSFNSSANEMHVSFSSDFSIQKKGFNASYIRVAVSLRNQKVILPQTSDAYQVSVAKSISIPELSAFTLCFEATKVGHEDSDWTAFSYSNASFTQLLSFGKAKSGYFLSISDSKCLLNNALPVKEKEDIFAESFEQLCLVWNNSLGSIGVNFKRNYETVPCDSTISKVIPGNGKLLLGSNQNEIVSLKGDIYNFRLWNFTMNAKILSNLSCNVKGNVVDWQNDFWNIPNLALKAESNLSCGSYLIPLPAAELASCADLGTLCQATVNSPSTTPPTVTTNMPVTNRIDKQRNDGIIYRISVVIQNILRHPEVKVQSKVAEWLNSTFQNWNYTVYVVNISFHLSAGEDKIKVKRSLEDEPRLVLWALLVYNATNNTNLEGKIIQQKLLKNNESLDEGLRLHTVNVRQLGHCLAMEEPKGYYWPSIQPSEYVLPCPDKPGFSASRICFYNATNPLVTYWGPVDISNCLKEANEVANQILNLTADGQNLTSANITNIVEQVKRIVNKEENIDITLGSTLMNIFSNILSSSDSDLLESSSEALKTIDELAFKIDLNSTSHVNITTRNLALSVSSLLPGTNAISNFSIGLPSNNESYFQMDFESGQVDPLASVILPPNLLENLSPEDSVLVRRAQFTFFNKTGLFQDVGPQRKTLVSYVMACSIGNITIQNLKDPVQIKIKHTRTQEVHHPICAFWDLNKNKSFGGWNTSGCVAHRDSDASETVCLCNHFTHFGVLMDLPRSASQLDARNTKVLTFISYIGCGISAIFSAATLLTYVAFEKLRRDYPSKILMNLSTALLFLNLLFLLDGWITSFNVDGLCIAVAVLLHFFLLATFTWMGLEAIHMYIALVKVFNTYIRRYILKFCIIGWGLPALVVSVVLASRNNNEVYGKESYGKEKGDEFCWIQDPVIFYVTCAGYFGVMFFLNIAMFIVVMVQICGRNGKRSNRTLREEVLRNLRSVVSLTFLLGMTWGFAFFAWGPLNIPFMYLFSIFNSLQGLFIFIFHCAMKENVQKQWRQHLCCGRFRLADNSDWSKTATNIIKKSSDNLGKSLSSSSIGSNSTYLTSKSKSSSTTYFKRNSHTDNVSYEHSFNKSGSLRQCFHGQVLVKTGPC

GPR126-β = biological target: T2, GPR126-β (Homo sapiens, UniProt Q86SQ4); experiment: GloSensor cAMP inhibition assay, GPR126-β construct; format: cell-based
T2 sequence (Q86SQ4 841-1221 limits assumed): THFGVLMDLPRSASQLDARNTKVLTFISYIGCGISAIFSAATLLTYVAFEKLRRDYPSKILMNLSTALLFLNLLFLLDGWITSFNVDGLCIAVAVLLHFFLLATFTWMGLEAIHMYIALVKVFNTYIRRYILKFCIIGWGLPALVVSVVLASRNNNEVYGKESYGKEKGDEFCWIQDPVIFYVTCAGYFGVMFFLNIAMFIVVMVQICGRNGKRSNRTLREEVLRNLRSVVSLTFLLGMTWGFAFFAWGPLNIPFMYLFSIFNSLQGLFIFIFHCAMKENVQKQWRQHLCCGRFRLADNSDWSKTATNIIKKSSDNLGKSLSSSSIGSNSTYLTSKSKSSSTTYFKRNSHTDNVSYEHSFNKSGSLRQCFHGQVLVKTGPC

GPR126 [2] = biological target: T1, GPR126; details: angiotensin II and AT1R as controls
MDA-MB-231 cells [3] = experiment: Nude mouse xenograft model; format: in vivo, nude mice; details: 15 mg/kg i.p. every 3 d
GPR126 [4] = biological target: T1, GPR126; details: angiotensin II and AT1R as controls; remark: listed apart in the source
PAQR7 = biological target: T3, PAQR7 (Homo sapiens, UniProt Q86WK9); experiment: GloSensor cAMP inhibition assay in HEK293 cells overexpressing PAQR7; format: cell-based; details: similar plasma membrane expression levels
T3 sequence (Q86WK9 1-346): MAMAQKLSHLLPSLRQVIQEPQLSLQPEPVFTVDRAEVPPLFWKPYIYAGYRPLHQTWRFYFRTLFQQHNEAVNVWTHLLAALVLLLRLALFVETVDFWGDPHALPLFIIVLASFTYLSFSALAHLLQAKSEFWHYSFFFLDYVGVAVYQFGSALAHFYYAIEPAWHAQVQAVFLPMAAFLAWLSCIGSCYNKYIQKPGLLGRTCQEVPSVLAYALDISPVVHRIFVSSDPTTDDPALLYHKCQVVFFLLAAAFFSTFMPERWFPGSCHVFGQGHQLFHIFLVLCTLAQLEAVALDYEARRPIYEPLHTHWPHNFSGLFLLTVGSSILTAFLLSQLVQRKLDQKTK

GPR126 [5] = biological target: T1, GPR126; format: cell-based
PAQR8 = biological target: T4, PAQR8 (Homo sapiens, UniProt Q8TEZ7); experiment: GloSensor cAMP inhibition assay in HEK293 cells overexpressing PAQR8; format: cell-based; details: similar plasma membrane expression levels
T4 sequence (Q8TEZ7 1-354): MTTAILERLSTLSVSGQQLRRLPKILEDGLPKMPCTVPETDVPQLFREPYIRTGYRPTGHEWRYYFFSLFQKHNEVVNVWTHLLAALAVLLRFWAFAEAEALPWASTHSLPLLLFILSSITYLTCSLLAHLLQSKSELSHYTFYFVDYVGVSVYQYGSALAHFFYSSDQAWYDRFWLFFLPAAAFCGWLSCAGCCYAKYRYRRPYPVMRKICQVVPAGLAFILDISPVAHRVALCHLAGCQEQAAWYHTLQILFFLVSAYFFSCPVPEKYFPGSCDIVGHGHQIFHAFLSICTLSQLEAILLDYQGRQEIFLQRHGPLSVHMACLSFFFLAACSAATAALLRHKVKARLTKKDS

[6] = Plasma progesterone level after intraperitoneal injection; format: in vivo, nude mice
GPR126 [7] = format: cell-based, human
SRC = experiment: Western blot of p-SRC Y416, p-AKT S473, p-ERK T202/Y204; format: cell-based, human; details: 10 nM
MDA-MB-231 cells [8] = experiment: Colony formation assay; format: cell-based, human
MDA-MB-231 cells [9] = format: cell-based, human
full-length GPR126 [10] = experiment: cell-based; format: cell-based, human
full-length GPR126 [11] = biological target: T5, full-length GPR126 (Homo sapiens, UniProt Q86SQ4, R1057Q); experiment: cell-based; format: cell-based
T5 sequence (Q86SQ4 38-1221 R1057Q): T1 sequence (Q86SQ4 38-1221) with R1020Q

full-length GPR126 [12] = biological target: T6, full-length GPR126 (Homo sapiens, UniProt Q86SQ4); experiment: cell-based; format: cell-based
T6 sequence (Q86SQ4 38-1221): T1 sequence (Q86SQ4 38-1221)

Compound: C[C@]12CCC(=O)C=C1CC[C@@H]1[C@@H]2CC[C@@]2(C)[C@H]1CC[C@]2(O)C(=O)CO [11-deoxycortisol]
- EC50 (GPR126 [1]): 1400 ± 140 nM
- Emax compared with 126-SMP, cAMP accumulation (GPR126 [1]): less than one-sixth
- effect on intracellular cAMP accumulation (GPR126 [1]): weak but detectable increase

Compound: CC(=O)[C@H]1CC[C@H]2[C@@H]3CCC4=CC(=O)CC[C@]4(C)[C@H]3CC[C@]12C [progesterone]
- EC50 for GPR126-β lower than that of full-length GPR126 (GPR126-β): ~10 fold
- Gq activity of GPR126 (GPR126 [2]): no obvious
- rates of mouse weight gain between groups (MDA-MB-231 cells [3]): not significantly different
- tumor growth in the Sh-CTRL group (MDA-MB-231 cells [3]; 32 d): significantly enhanced
- tumor growth in the Sh-GPR126-1 group (MDA-MB-231 cells [3]; 32 d): minimal effects
- size and weight of tumors in the Sh-CTRL group (MDA-MB-231 cells [3]; after 32 d): significantly increased
- size and weight of tumors in the Sh-GPR126-1 group (MDA-MB-231 cells [3]; after 32 d): no significant effects
- β-arrestin-2 recruitment of GPR126 (GPR126 [4]): no obvious
- activation of PAQR7 stronger than GPR126 (potency) (PAQR7): ~100 fold
- efficacy at PAQR7 compared with GPR126 (PAQR7): significant lower efficacy
- cAMP levels in GPR126 knocking down cells (GPR126 [5]): no significant effects
- cAMP levels induced by Fsk in GPR126-expressing cells (GPR126 [5]): inhibited
- activation of PAQR8 stronger than GPR126 (potency) (PAQR8): ~100 fold
- efficacy at PAQR8 compared with GPR126 (PAQR8): significant lower efficacy
- maximum plasma concentration ([6]; mice, 15 mg/kg intraperitoneal injection): 151 nM
- steady plasma level ([6]; mice, 15 mg/kg intraperitoneal injection, from 8 h): 4.547 nM
- Tmax ([6]; nude, mouse, plasma, ip, 15 mg/kg): ~1 h
- Gs coupling of GPR126 (GPR126 [1]): not detectable
- BRET signal between Nluc-N terminus and FlAsH-labeled S1 site of ECL1 (GPR126 [7]): increase
- GPR126 response with mutation of F1085 (GPR126 [7]): impaired
- extracellular conformational change of GPR126 with K1001 or F1012 mutated to Ala (GPR126 [7]): no significant effects
- BRET signal between Nluc-tagged N terminus and FlAsH-labeled ECL2 (GPR126 [7]; concentration-dependent): significant increase
- p-SRC Y416 level, F1085A or W1081A overexpressed in GPR126-silenced cells (SRC; 5 min): failed to increase
- pY416 SRC phosphorylation, GPR126 wild-type or L937A overexpressed in GPR126-silenced cells (SRC; 5 min): able to promote
- time of maximum phosphorylation after treatment (SRC; MDA-MB-231 cells): 5 min
- phosphorylation of SRC at Y416, p-AKT S473 and p-ERK T202/Y204 (SRC; MDA-MB-231 cells, time-dependent): promoted
- colony number and size in Sh-CTRL cells (MDA-MB-231 cells [8]; MDA-MB-231 Sh-CTRL, 10 nM): increase
- increase in colony number and size after GPR126 knockdown (MDA-MB-231 cells [8]; MDA-MB-231 Sh-GPR126, 10 nM): largely abolished
- growth of GPR126-silenced cells overexpressing wild-type GPR126 or L937A (MDA-MB-231 cells [9]): significantly promoted
- growth promotion in GPR126-silenced cells overexpressing W1081A or F1085A (MDA-MB-231 cells [9]): significantly attenuated
- increase in growth rate of Sh-CTRL cells (MDA-MB-231 cells [9]): approximately twofold
- induced cell growth in GPR126-silenced cells overexpressing R1057Q (MDA-MB-231 cells [9]): inhibited
- proliferation-promoting effect in GPR126-silenced cells (MDA-MB-231 cells [9]): attenuated
- GPR126 activity in cAMP inhibition assay with Ala mutants (full-length GPR126 [10]): significantly impaired
- potency in cAMP inhibition assay with GPR126 R1057Q mutant (full-length GPR126 [11]): decreased the potency
- able to inhibit Fsk-induced cAMP accumulation (full-length GPR126 [12]): able to inhibit
- EC50 (full-length GPR126 [12]; EC50, cAMP inhibition, full-length GPR126): 540 nM and ~540 nM

Compound: COc1cc2ncnc(Nc3ccc(Oc4ccccc4)cc3)c2cc1OC [Src-I1]
- effect of SRC inhibitor on progesterone-induced cell growth (MDA-MB-231 cells [9]): significantly suppressed

Compound: C=C[C@@]1(C)CC(=O)[C@]2(O)[C@@]3(C)[C@@H](O)CCC(C)(C)[C@@H]3[C@H](O)[C@H](OC(C)=O)[C@@]2(C)O1 [Fsk, Forskolin]
- cAMP up-regulation compared to control vehicle (GPR126 [5]): approximately three times

Compound: C[C@]12CC[C@H]3[C@@H](CCC4=CC(=O)CC[C@@]43C)[C@@H]1CC[C@@H]2O [testosterone]
- EC50 (GPR126 [1]): 800 ± 60 nM
- Emax compared with 126-SMP, cAMP accumulation (GPR126 [1]): less than one-sixth
- effect on intracellular cAMP accumulation (GPR126 [1]): weak but detectable increase

Reference: PMC9169622 (Proceedings of the National Academy of Sciences of the …, 2022)
